Source: patent US12404332B2, “Methods for diagnosing and treating cancers” (Research Development Foundation, priority 2020, dated 2025)

Assays:
PD-L1 = assay: Tumor cell PD-L1 depletion by drugs (flow cytometry, immunoblot); assay type: cell-based, human and mouse; details: summary statement
Method: High throughput Screening: B16 PD-L1 RFP cells were treated with 2.5 and 10 μM compounds from the Prestwick and LOPAC Libraries for 48 hours using the Agilent Bravo liquid pipetting platform. Then, cells were washed with PBS, and fixed with 4% paraformaldehyde (Electron Microscopy Sciences, Hatsfield, PA, Cat 15714S) and labeled with 2 μg/ml DAPI, (Molecular Probes, Cat D1306) and 1 μg/ml Cell Mask-Blue (Invitrogen, Cat. H32720). Plates were then imaged using the Operetta High Content Imaging System, Perkin Elmer, Waltham (DAPI and Cell Mask Blue, Ex 360-400, Em 410-480), and the RFP channels (Ex 520-550, Em 560-630) channels. Agents effecting ≥2-fold PD-L1 reduction in the RFP reporter without loss of ≥20% cell viability were candidate PD-L1 depletion agents.
Flow cytometry: Mice were sacrificed by cervical dislocation after induction of deep isoflurane anesthesia. ID8agg tumors were collected and cells were stained as described (Derup et al., 2020) using LSR II hardware and analyzed by FACS Diva (BD Bioscience) or Flow Jo software (Flow Jo, LLC). Anti-mouse (clone 10F.9G2) and human (clone 29E.2A3) PD-L1 [both PE/Cy7, Cat #124314 (mouse) 329718 (human)] were matched with isotype control. Apoptosis assessment used Annexin V and propidium iodide (Thermo Scientific) per manufacturer instruction.
Western blotting and immunoprecipitation: To prepare whole cell lysates, cells were harvested and lysed in RIPA (radioimmunoprecipitation assay) buffer plus 1 mM phenylmethylsulphonyl fluoride and Halt protease/phosphatase inhibitor cocktail (Thermo Scientific) at 4° C. Protein concentrations were measured by BCA Protein Assay Kit (Thermo Scientific). Protein was run on precast 4-15% sodium dodecyl sulfate polyacrylamide gels (Bio-Rad), transferred to polyvinylidene fluoride membranes (GE Water and Process Technologies), and then blocked in 5% non-fat milk for 1 hour at room temperature. The membranes were then incubated with 1:1000 diluted primary antibodies against indicated proteins (Cell Signaling). Specific antibody binding was detected by chemiluminescence using Western Lightening Plus regent (Perkin Elmer). Cells for (co) immunoprecipitation experiments were seeded in 15-cm dishes and cultured as described, using 6 million cells per immunoprecipitation reaction. For protein ubiquitination, cells were lysed in denaturing buffer (50 mM Tris-HCl, 0.5 mM EDTA and 1% SDS) followed by heating at 95° C. for 10 minutes and then quenched with 9 volumes of quenching buffer (0.5% Triton X-100, 20 mM Tris-HCl (pH 8.0), 137 mM NaCl, 10% glycerol, 2 mM EDTA). Protease inhibitor cocktail (Roche) was added fresh to all buffers. Cell lysates were incubated on a rotator for 30 minutes at 4° C., and then centrifuged at 20,000 g for 15 minutes at 4° C. Supernatants were subsequently incubated with anti-PD-L1 antibody overnight and processed using Dynabeads Protein G for Immunoprecipitation (Thermo Fisher Scientific). The final eluate was processed and Western blotting was performed.

RT4 cells = assay: Chk1 inhibitor synthetic lethality with beta-lactam antibiotics, RT4 cells; assay type: cell-based, human
Method: (§1) Additional experiments were performed, as follows. MB49 were plated at 2,000 cells/well in 96 well flat bottom plates and treated with PD-L1 depleting drugs, olaparib (2.5 μM), and combination for 96 hours. RT4 were plated at 2,000 cells/well in 96 well flat bottom plates and treated with cefepime, rabusertib (1 μM), praxasertib, or combination for 96 hours. ID8agg, 4T1, and B16 cells were plated on fibronectin at 500 cells/well and treated with cefepime, rabusertib, or combination for 96 hours. Normalized treatment combination to DDR inhibitor alone, and PD-L1 depleting drug to vehicle alone (DMSO) were evaluated.

ID8agg cells = assay: Chk1 inhibitor synthetic lethality with ceftazidime, ID8agg cells; assay type: cell-based, mouse
Method: as §1

CC(C)(O/N=C(\C(=O)N[C@@H]1C(=O)N2C(C(=O)[O-])=C(C[n+]3ccccc3)CS[C@H]12)c1csc(N)n1)C(=O)O [ceftazidime]
expression of PD-L1 in cancer cells (PD-L1): decreased expression of PD-L1 | PD-L1 dependence of synthetic lethality (RT4 cells; FIG. 47B): PD-L1 dependent | synthetic lethality with Chk1i (RT4 cells; RT4 cells, Chk1i rabusertib): induce synthetic lethality | synthetic lethality with Chk1i (ID8agg cells): induce synthetic lethality
